Reference: US12528791B2 (priority 2019, dated 2026)

Experiments:
THR-β/RXR-α = target: T1, THR-β/RXR-α (Homo sapiens, UniProt P10828); assay type: biochemical; conditions: RXR heterodimer assay; compound activity normalized to T3 for THR-β/RXR-α and THR-α/RXR-α
T1 sequence (P10828 202-461 limits assumed): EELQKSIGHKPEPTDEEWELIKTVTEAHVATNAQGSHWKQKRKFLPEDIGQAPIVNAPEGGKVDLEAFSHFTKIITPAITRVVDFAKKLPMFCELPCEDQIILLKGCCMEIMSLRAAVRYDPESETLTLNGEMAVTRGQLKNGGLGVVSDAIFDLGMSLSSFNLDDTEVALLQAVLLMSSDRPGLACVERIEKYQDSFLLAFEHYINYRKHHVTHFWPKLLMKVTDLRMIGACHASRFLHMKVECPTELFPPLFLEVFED
T1 sequence (P19793 225-462 partner limits assumed): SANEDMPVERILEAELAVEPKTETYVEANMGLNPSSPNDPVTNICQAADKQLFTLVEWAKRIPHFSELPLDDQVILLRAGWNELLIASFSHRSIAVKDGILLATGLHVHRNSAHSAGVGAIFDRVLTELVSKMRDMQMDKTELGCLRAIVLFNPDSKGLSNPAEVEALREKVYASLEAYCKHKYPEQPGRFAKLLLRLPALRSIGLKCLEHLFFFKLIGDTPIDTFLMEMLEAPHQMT
T1 sequence (Q15596 679-703 partner limits assumed): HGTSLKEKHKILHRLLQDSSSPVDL

TR beta-LBD = target: T2, TR beta-LBD (Homo sapiens, UniProt P10828); assay type: biochemical; conditions: TR-FRET assay; THR beta over THR alpha, derived from T3-selectivity normalized data
T2 sequence (P10828 217-461 limits assumed): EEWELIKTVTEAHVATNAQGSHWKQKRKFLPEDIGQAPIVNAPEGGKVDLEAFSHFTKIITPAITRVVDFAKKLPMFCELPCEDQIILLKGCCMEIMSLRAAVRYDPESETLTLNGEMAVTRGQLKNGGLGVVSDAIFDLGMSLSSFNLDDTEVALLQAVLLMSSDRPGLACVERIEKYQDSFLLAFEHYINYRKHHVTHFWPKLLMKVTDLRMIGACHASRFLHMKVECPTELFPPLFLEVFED

| SMILES | THRβ-Selectivity (THR-β/RXR-α) | THRβ-Selectivity (TR beta-LBD) |
| --- | --- | --- |
| O=C(Nc1cc(Cl)c(Oc2ccc3ncn(C4(C(F)F)CC4)c3c2)c(Cl)c1)c1noc(=O)[nH]1 [Example 55, N-(3,5-dichloro-4-((1-(1-(difluoromethyl)cyclopropyl)-1H-benzo[d]imidazol-6-yl)oxy)phenyl)-5-oxo-4,5-dihydro-1,2,4-oxadiazole-3-carboxamide] | 14.3 |  |
| Cc1n[nH]c2ccc(Oc3c(Cl)cc(-n4nc(C#N)c(=O)[nH]c4=O)cc3Cl)cc12 [Example 3, 2-(3,5-dichloro-4-((3-methyl-1H-indazol-5-yl)oxy)phenyl)-3,5-dioxo-2,3,4,5-tetrahydro-1,2,4-triazine-6-carbonitrile] | 8.5 | 32.0 |
| N#Cc1nn(-c2cc(Cl)c(Oc3ccc4nc5n(c4c3)CCCO5)c(Cl)c2)c(=O)[nH]c1=O [Example 40, 2-(3,5-dichloro-4-((3,4-dihydro-2H-benzo[4,5]imidazo[2,1-b][1,3]oxazin-7-yl)oxy)phenyl)-3,5-dioxo-2,3,4,5-tetrahydro-1,2,4-triazine-6-carbonitrile] | 11.6 |  |
| CCc1ccnc2ccc(Oc3c(Cl)cc(-n4nc(C#N)c(=O)[nH]c4=O)cc3Cl)cc12 [Example 35, 2-(3,5-dichloro-4-((4-ethylquinolin-6-yl)oxy)phenyl)-3,5-dioxo-2,3,4,5-tetrahydro-1,2,4-triazine-6-carbonitrile] | 10.2 |  |
| Cc1ccnc2ccc(Oc3c(Cl)cc(-n4nc(C#N)c(=O)[nH]c4=O)cc3Cl)cc12 [Example 15, 2-(3,5-dichloro-4-((4-methylquinolin-6-yl)oxy)phenyl)-3,5-dioxo-2,3,4,5-tetrahydro-1,2,4-triazine-6-carbonitrile] | 15.4 | 15.9 |
| CCc1ccnc2ccc(Oc3c(Cl)cc(NC(=O)c4noc(=O)[nH]4)cc3Cl)cc12 [Example 36, N-(3,5-dichloro-4-((4-ethylquinolin-6-yl)oxy)phenyl)-5-oxo-4,5-dihydro-1,2,4-oxadiazole-3-carboxamide] | 7.1 |  |
| CC(C)(C)n1cnc2ccc(Oc3c(Cl)cc(-n4nc(C#N)c(=O)[nH]c4=O)cc3Cl)cc21 [Example 38, 2-(4-((1-(tert-butyl)-1H-benzo[d]imidazol-6-yl)oxy)-3,5-dichlorophenyl)-3,5-dioxo-2,3,4,5-tetrahydro-1,2,4-triazine-6-carbonitrile] | 8.4 |  |
| CC1(n2cnc3ccc(Oc4c(Cl)cc(NC(=O)c5noc(=O)[nH]5)cc4Cl)cc32)CC1 [Example 43, N-(3,5-dichloro-4-((1-(1-methylcyclopropyl)-1H-benzo[d]imidazol-6-yl)oxy)phenyl)-5-oxo-4,5-dihydro-1,2,4-oxadiazole-3-carboxamide] | 11.8 |  |
| O=C(Nc1cc(Cl)c(Oc2ccc3ncn(C4CC4)c3c2)c(Cl)c1)c1noc(=O)[nH]1 [Example 22, N-(3,5-dichloro-4-((1-cyclopropyl-1H-benzo[d]imidazol-6-yl)oxy)phenyl)-5-oxo-4,5-dihydro-1,2,4-oxadiazole-3-carboxamide] | 5.9 | >253.0 |
| O=C(Nc1cc(Cl)c(Oc2ccc3nccc(C4CC4)c3c2)c(Cl)c1)c1noc(=O)[nH]1 [Example 51, N-(3,5-dichloro-4-((4-cyclopropylquinolin-6-yl)oxy)phenyl)-5-oxo-4,5-dihydro-1,2,4-oxadiazole-3-carboxamide] | 8.1 |  |
| Cc1n[nH]c2ccc(Oc3c(Cl)cc(-c4n[nH]c(=O)[nH]c4=O)cc3Cl)cc12 [Example 5, 6-(3,5-dichloro-4-((3-methyl-1H-indazol-5-yl)oxy)phenyl)-1,2,4-triazine-3,5(2H,4H)-dione] | 3.1 | 15.6 |
| N#Cc1nn(-c2cc(Cl)c(Oc3ccc4ncn(C5CC5)c4c3)c(Cl)c2)c(=O)[nH]c1=O [Example 23, 2-(3,5-dichloro-4-((1-cyclopropyl-1H-benzo[d]imidazol-6-yl)oxy)phenyl)-3,5-dioxo-2,3,4,5-tetrahydro-1,2,4-triazine-6-carbonitrile] | 5.7 | 20.2 |
| Cc1n[nH]c2ncc(Oc3c(Cl)cc(-n4nc(C#N)c(=O)[nH]c4=O)cc3Cl)cc12 [Example 7, 2-(3,5-dichloro-4-((3-methyl-1H-pyrazolo[3,4-b]pyridin-5-yl)oxy)phenyl)-3,5-dioxo-2,3,4,5-tetrahydro-1,2,4-triazine-6-carbonitrile] | 9.7 | 9.5 |
| N#Cc1nn(-c2cc(Cl)c(Oc3ccc4nccc(C5CC5)c4c3)c(Cl)c2)c(=O)[nH]c1=O [Example 52, 2-(3,5-dichloro-4-((4-cyclopropylquinolin-6-yl)oxy)phenyl)-3,5-dioxo-2,3,4,5-tetrahydro-1,2,4-triazine-6-carbonitrile] | 11.9 |  |
| CC(C)n1cnc2ccc(Oc3c(Cl)cc(-n4nc(C#N)c(=O)[nH]c4=O)cc3Cl)cc21 [Example 21, 2-(3,5-dichloro-4-((1-isopropyl-1H-benzo[d]imidazol-6-yl)oxy)phenyl)-3,5-dioxo-2,3,4,5-tetrahydro-1,2,4-triazine-6-carbonitrile] | 10.9 | 12.9 |
| CC(C)n1cnc2ccc(Oc3c(Cl)cc(NC(=O)c4noc(=O)[nH]4)cc3Cl)cc21 [Example 20, N-(3,5-dichloro-4-((1-isopropyl-1H-benzo[d]imidazol-6-yl)oxy)phenyl)-5-oxo-4,5-dihydro-1,2,4-oxadiazole-3-carboxamide] | 11.3 | 348.9 |
| O=C(Nc1cc(Cl)c(Oc2ccc3ncn(C4(C(F)(F)F)CC4)c3c2)c(Cl)c1)c1noc(=O)[nH]1 [Example 53, N-(3,5-dichloro-4-((1-(1-(trifluoromethyl)cyclopropyl)-1H-benzo[d]imidazol-6-yl)oxy)phenyl)-5-oxo-4,5-dihydro-1,2,4-oxadiazole-3-carboxamide] | 14.7 |  |
| CCc1n[nH]c2ccc(Oc3c(Cl)cc(-c4n[nH]c(=O)[nH]c4=O)cc3Cl)cc12 [Example 2, 6-(3,5-dichloro-4-((3-ethyl-1H-indazol-5-yl)oxy)phenyl)-1,2,4-triazine-3,5(2H,4H)-dione] | 3.6 | 28.0 |
| CC1(n2cnc3ccc(Oc4c(Cl)cc(-n5nc(C#N)c(=O)[nH]c5=O)cc4Cl)cc32)CC1 [Example 44, 2-(3,5-dichloro-4-((1-(1-methylcyclopropyl)-1H-benzo[d]imidazol-6-yl)oxy)phenyl)-3,5-dioxo-2,3,4,5-tetrahydro-1,2,4-triazine-6-carbonitrile] | 10.1 |  |
| CCc1c[nH]c2ccc(Oc3c(Cl)cc(-n4nc(C#N)c(=O)[nH]c4=O)cc3Cl)cc12 [Example 59, 2-(3,5-dichloro-4-((3-ethyl-1H-indol-5-yl)oxy)phenyl)-3,5-dioxo-2,3,4,5-tetrahydro-1,2,4-triazine-6-carbonitrile] | 8.4 |  |
| CC(C)(C)n1cnc2ccc(Oc3c(Cl)cc(NC(=O)c4noc(=O)[nH]4)cc3Cl)cc21 [Example 37, N-(4-((1-(tert-butyl)-1H-benzo[d]imidazol-6-yl)oxy)-3,5-dichlorophenyl)-5-oxo-4,5-dihydro-1,2,4-oxadiazole-3-carboxamide] | 8.3 |  |
| O=C(Nc1cc(Cl)c(Oc2ccc3nc4n(c3c2)CCCO4)c(Cl)c1)c1noc(=O)[nH]1 [Example 39, N-(3,5-dichloro-4-((3,4-dihydro-2H-benzo[4,5]imidazo[2,1-b][1,3]oxazin-7-yl)oxy)phenyl)-5-oxo-4,5-dihydro-1,2,4-oxadiazole-3-carboxamide] | 5.1 |  |
| Cc1n[nH]c2ccc(Oc3c(Cl)cc(NC(=O)c4noc(=O)[nH]4)cc3Cl)cc12 [Example 4, N-(3,5-dichloro-4-((3-methyl-1H-indazol-5-yl)oxy)phenyl)-5-oxo-4,5-dihydro-1,2,4-oxadiazole-3-carboxamide] | 6.6 | 18.8 |
| N#Cc1nn(-c2cc(Cl)c(Oc3ccc4nc(C5CC5)ccc4c3)c(Cl)c2)c(=O)[nH]c1=O [Example 26, 2-(3,5-dichloro-4-((2-cyclopropylquinolin-6-yl)oxy)phenyl)-3,5-dioxo-2,3,4,5-tetrahydro-1,2,4-triazine-6-carbonitrile] | 3.3 |  |
| N#Cc1nn(-c2cc(Cl)c(Oc3ccc4ncn(C5(C(F)F)CC5)c4c3)c(Cl)c2)c(=O)[nH]c1=O [Example 56, 2-(3,5-dichloro-4-((1-(1-(difluoromethyl)cyclopropyl)-1H-benzo[d]imidazol-6-yl)oxy)phenyl)-3,5-dioxo-2,3,4,5-tetrahydro-1,2,4-triazine-6-carbonitrile] | 9.0 |  |
| CC(C)n1c(=O)[nH]c2ccc(Oc3c(Cl)cc(NC(=O)c4noc(=O)[nH]4)cc3Cl)cc21 [Example 30, N-(3,5-dichloro-4-((3-isopropyl-2-oxo-2,3-dihydro-1H-benzo[d]imidazol-5-yl)oxy)phenyl)-5-oxo-4,5-dihydro-1,2,4-oxadiazole-3-carboxamide] | 9.9 |  |
